From patent US12084485B2 (Intarcia Therapeutics, Inc., priority 2020, dated 2024) come the findings set out here.

As a reminder, the solubility is the concentration that dissolves in the medium under given conditions. A lower solubility goes with little dissolved substance.

Series [1] can be described thus: Solubility in saline or DI water at room temperature (visual inspection). The class given is physicochemical.
The nature of series [2]: Acute food intake inhibition in Long Evans rats after bolus SC dosing (BioDAQ). The format is in vivo, rat. To be noted: 30 mcg SC bolus.
The nature of series [3]: Stability in DMSO or DI water at 37° C. (purity by LC/MS and HPLC). The class given is physicochemical.

With `CC[C@H](C)[C@H](NC(=O)[C@H](Cc1ccccc1)NC(=O)[C@H](CCC(N)=O)NC(=O)[C@H](CCCNC(=N)N)NC(=O)[C@@H](NC(=O)[C@H](C)NC(=O)[C@H](CCC(=O)O)NC(=O)[C@H](CCCCNC(=O)CC[C@H](NC(=O)CC[C@H](NC(=O)COCCOCCNC(=O)CCCCCCCCCCCCCCCCCCC(=O)O)C(=O)O)C(=O)O)NC(=O)[C@H](CCC(=O)O)NC(=O)[C@H](Cc1ccc(O)cc1)NC(=O)[C@H](CCC(N)=O)NC(=O)[C@H](CCCCN)NC(=O)[C@H](CO)NC(=O)[C@H](CC(C)C)NC(=O)[C@H](CC(=O)O)NC(=O)[C@H](CO)NC(=O)[C@@H](NC(=O)[C@H](Cc1ccccc1)NC(=O)[C@@H](NC(=O)CNC(=O)[C@H](CCC(=O)O)NC(=O)C(C)(C)NC(=O)[C@@H](N)Cc1c[nH]cn1)[C@@H](C)O)[C@@H](C)O)C(C)C)C(=O)N[C@@H](CO)C(=O)N[C@@H](Cc1c[nH]c2ccccc12)C(=O)N[C@@H](CC(C)C)C(=O)N[C@@H](CCCCN)C(=O)N[C@@H](CC(N)=O)C(=O)NCC(=O)NCC(=O)N1CCC[C@H]1C(=O)N[C@@H](CO)C(=O)N[C@@H](CO)C(=O)NCC(=O)N[C@@H](C)C(=O)N1CCC[C@H]1C(=O)N1CCC[C@H]1C(=O)N1CCC[C@H]1C(=O)N[C@@H](CO)C(N)=O` [Compound A96], the results for the solubility in series [1] (Solubility (mg/mL) in DI water) and in series [1] (Solubility (mg/mL) in saline) were greater than 128 mg/mL and greater than 133 mg/mL, respectively.
In the case of `CC[C@H](C)[C@H](NC(=O)[C@H](Cc1ccccc1)NC(=O)[C@H](CCC(=O)O)NC(=O)[C@H](CCCNC(=N)N)NC(=O)[C@@H](NC(=O)[C@H](C)NC(=O)[C@H](CCC(=O)O)NC(=O)[C@H](CCCCNC(=O)CC[C@H](NC(=O)CC[C@H](NC(=O)COCCOCCNC(=O)CCCCCCCCCCCCCCCCCCC(=O)O)C(=O)O)C(=O)O)NC(=O)[C@H](CCC(=O)O)NC(=O)[C@H](Cc1ccc(O)cc1)NC(=O)[C@H](CCC(N)=O)NC(=O)[C@H](CCCCN)NC(=O)[C@H](CO)NC(=O)[C@H](CC(C)C)NC(=O)[C@H](CC(=O)O)NC(=O)[C@H](CO)NC(=O)[C@@H](NC(=O)[C@H](Cc1ccccc1)NC(=O)[C@@H](NC(=O)CNC(=O)[C@H](CCC(=O)O)NC(=O)C(C)(C)NC(=O)[C@@H](N)Cc1c[nH]cn1)[C@@H](C)O)[C@@H](C)O)C(C)C)C(=O)N[C@@H](CCC(=O)O)C(=O)N[C@@H](Cc1c[nH]c2ccccc12)C(=O)N[C@@H](CC(C)C)C(=O)N[C@@H](CCCCN)C(=O)N[C@@H](CC(N)=O)C(=O)NCC(=O)NCC(=O)N1CCC[C@H]1C(=O)N[C@@H](Cc1c[nH]cn1)C(=O)N[C@@H](CO)C(=O)NCC(=O)N[C@@H](C)C(=O)N1CCC[C@H]1C(=O)N1CCC[C@H]1C(=O)N1CCC[C@H]1C(=O)N[C@@H](CO)C(N)=O` [Compound A152], the solubility in series [1] (Solubility (mg/mL) in DI water) is greater than 109 mg/mL; in series [1] (Solubility (mg/mL) in saline), greater than 101 mg/mL.
Turning to `CC[C@H](C)[C@H](NC(=O)[C@H](Cc1ccccc1)NC(=O)[C@H](CCCCN)NC(=O)[C@H](CCCNC(=N)N)NC(=O)[C@H](C)NC(=O)[C@H](C)NC(=O)[C@H](CCC(=O)O)NC(=O)[C@H](CCCCNC(=O)CC[C@H](NC(=O)CC[C@H](NC(=O)COCCOCCNC(=O)CCCCCCCCCCCCCCCCCCC(=O)O)C(=O)O)C(=O)O)NC(=O)[C@H](CCC(=O)O)NC(=O)[C@H](Cc1ccc(O)cc1)NC(=O)[C@H](CCC(N)=O)NC(=O)[C@H](CCCCN)NC(=O)[C@H](CO)NC(=O)[C@H](CC(C)C)NC(=O)[C@H](CC(=O)O)NC(=O)[C@H](CO)NC(=O)[C@@H](NC(=O)[C@H](Cc1ccccc1)NC(=O)[C@@H](NC(=O)CNC(=O)[C@H](CCC(=O)O)NC(=O)C(C)(C)NC(=O)[C@@H](N)Cc1c[nH]cn1)[C@@H](C)O)[C@@H](C)O)C(=O)N[C@@H](CO)C(=O)N[C@@H](Cc1c[nH]c2ccccc12)C(=O)N[C@@H](CC(C)C)C(=O)N[C@@H](CCCCN)C(=O)N[C@@H](CC(N)=O)C(=O)NCC(=O)NCC(=O)N1CCC[C@H]1C(=O)N[C@@H](Cc1c[nH]cn1)C(=O)N[C@@H](CO)C(=O)NCC(=O)N[C@@H](C)C(=O)N1CCC[C@H]1C(=O)N1CCC[C@H]1C(=O)N1CCC[C@H]1C(=O)N[C@@H](CO)C(N)=O` [Compound A62], the “% Food Intake Inhibition from Vehicle, 0-24 hr” value in series [2] (0-24 hr) is given as −37.1%. Also, the “% Food Intake Inhibition from Vehicle, 25-48 hr” value in series [2] (25-48 hr) was −48.8%. Also, in series [2] (49-72 hr), the “% Food Intake Inhibition from Vehicle, 49-72 hr” value was −47.4%. Moreover, the “% Food Intake Inhibition from Vehicle, 73-96 hr” value in series [2] (73-96 hr) worked out at 19.5%.
Take `CC[C@H](C)[C@H](NC(=O)[C@H](Cc1ccccc1)NC(=O)[C@H](CCC(=O)O)NC(=O)[C@H](CCCNC(=N)N)NC(=O)[C@H](C)NC(=O)[C@H](C)NC(=O)[C@H](CCC(=O)O)NC(=O)[C@H](CCNC(=O)CC[C@H](NC(=O)CC[C@H](NC(=O)COCCOCCNC(=O)CC[C@H](NC(=O)CC[C@H](NC(=O)CCCCCCCCCCCCCCCCCCC(=O)O)C(=O)O)C(=O)O)C(=O)O)C(=O)O)NC(=O)[C@H](CCC(=O)O)NC(=O)[C@H](Cc1ccc(O)cc1)NC(=O)[C@H](CCC(N)=O)NC(=O)[C@H](CCCCN)NC(=O)[C@H](CO)NC(=O)[C@H](CC(C)C)NC(=O)[C@H](CC(=O)O)NC(=O)[C@H](CO)NC(=O)[C@@H](NC(=O)[C@H](Cc1ccccc1)NC(=O)[C@@H](NC(=O)CNC(=O)[C@H](CCC(=O)O)NC(=O)C(C)(C)NC(=O)[C@@H](N)Cc1c[nH]cn1)[C@@H](C)O)[C@@H](C)O)C(=O)N[C@@H](CCC(=O)O)C(=O)N[C@@H](Cc1c[nH]c2ccccc12)C(=O)N[C@@H](CC(C)C)C(=O)N[C@@H](CCCCN)C(=O)N[C@@H](CC(N)=O)C(=O)NCC(=O)NCC(=O)N1CCC[C@H]1C(=O)N[C@@H](CO)C(=O)N[C@@H](CO)C(=O)NCC(=O)N[C@@H](C)C(=O)N1CCC[C@H]1C(=O)N1CCC[C@H]1C(=O)N1CCC[C@H]1C(=O)N[C@@H](CO)C(N)=O` [Compound A72]: in series [3], the “Stability @ 37° C. (% purity) Day 14” value stood at 98.7% and the “Stability @ RT (% purity) Day 28” value is recorded as 95.1%.
For the molecule `CC[C@H](C)[C@H](NC(=O)[C@H](Cc1ccccc1)NC(=O)[C@H](CCC(=O)O)NC(=O)[C@H](CCCNC(=N)N)NC(=O)[C@H](C)NC(=O)[C@H](C)NC(=O)[C@H](CCC(=O)O)NC(=O)[C@H](CCCCNC(=O)CC[C@H](NC(=O)CC[C@H](NC(=O)COCCOCCNC(=O)CC[C@H](NC(=O)CC[C@H](NC(=O)CCCCCCCCCCCCCCCCCCC(=O)O)C(=O)O)C(=O)O)C(=O)O)C(=O)O)NC(=O)[C@H](CCC(=O)O)NC(=O)[C@H](Cc1ccc(O)cc1)NC(=O)[C@H](CCC(N)=O)NC(=O)[C@H](CCCCN)NC(=O)[C@H](CO)NC(=O)[C@H](CC(C)C)NC(=O)[C@H](CC(=O)O)NC(=O)[C@H](CO)NC(=O)[C@@H](NC(=O)[C@H](Cc1ccccc1)NC(=O)[C@@H](NC(=O)CNC(=O)[C@H](CCC(=O)O)NC(=O)C(C)(C)NC(=O)[C@@H](N)Cc1c[nH]cn1)[C@@H](C)O)[C@@H](C)O)C(=O)N[C@@H](CCC(=O)O)C(=O)N[C@@H](Cc1c[nH]c2ccccc12)C(=O)N[C@@H](CC(C)C)C(=O)N[C@@H](CCCCN)C(=O)N[C@@H](CC(N)=O)C(=O)NCC(=O)NCC(=O)N1CCC[C@H]1C(=O)N[C@@H](Cc1c[nH]cn1)C(=O)N[C@@H](CO)C(=O)NCC(=O)N[C@@H](C)C(=O)N1CCC[C@H]1C(=O)N1CCC[C@H]1C(=O)N1CCC[C@H]1C(=O)N[C@@H](CO)C(N)=O` [Compound A154], the solubility in series [1] (Solubility (mg/mL) in DI water) was greater than 70 mg/mL; in series [1] (Solubility (mg/mL) in saline), greater than 106 mg/mL.
`CC[C@H](C)[C@H](NC(=O)[C@H](Cc1ccccc1)NC(=O)[C@H](CCC(=O)O)NC(=O)[C@H](CCCNC(=N)N)NC(=O)[C@H](C)NC(=O)[C@H](C)NC(=O)[C@H](CCC(=O)O)NC(=O)[C@H](CCCCNC(=O)CC[C@H](NC(=O)CC[C@H](NC(=O)COCCOCCNC(=O)CC[C@H](NC(=O)CC[C@H](NC(=O)CCCCCCCCCCCCCCCCCCC(=O)O)C(=O)O)C(=O)O)C(=O)O)C(=O)O)NC(=O)[C@H](CCC(=O)O)NC(=O)[C@H](Cc1ccc(O)cc1)NC(=O)[C@H](CCC(N)=O)NC(=O)[C@H](CCC(=O)O)NC(=O)[C@H](CO)NC(=O)[C@@H](NC(=O)[C@H](CC(=O)O)NC(=O)[C@H](CO)NC(=O)[C@@H](NC(=O)[C@H](Cc1ccccc1)NC(=O)[C@@H](NC(=O)CNC(=O)[C@H](CCC(=O)O)NC(=O)C(C)(C)NC(=O)[C@@H](N)Cc1c[nH]cn1)[C@@H](C)O)[C@@H](C)O)[C@@H](C)CC)C(=O)N[C@@H](CCC(=O)O)C(=O)N[C@@H](Cc1c[nH]c2ccccc12)C(=O)N[C@@H](CC(C)C)C(=O)N[C@@H](CCCCN)C(=O)N[C@@H](CC(N)=O)C(=O)NCC(=O)NCC(=O)N1CCC[C@H]1C(=O)N[C@@H](CO)C(=O)N[C@@H](CO)C(=O)NCC(=O)N[C@@H](C)C(=O)N1CCC[C@H]1C(=O)N1CCC[C@H]1C(=O)N1CCC[C@H]1C(=O)N[C@@H](CO)C(N)=O` [Compound A80]: the figures for the solubility in series [1] (Solubility (mg/mL) in DI water) and in series [1] (Solubility (mg/mL) in saline) were greater than 78 mg/mL and greater than 75 mg/mL, respectively.
